In the OligoGym collection:
“And” between values parts separate entries of the source, which are not always exact repeats. Equal values may be shown once. After the bases stand the sugars from the 5' end (letter, count) and the backbone: PS all phosphorothioate, else s phosphorothioate and o phosphodiester by linkage. Methylation of C is not given here. e = 2'-O-(2-methoxyethyl) (MOE); k = constrained ethyl (cEt); d = 2'-deoxy (DNA)

Target: KRAS
Details: ASO

| Sequence | target mRNA inhibition (A431, 2 µM) | also measured |
| --- | --- | --- |
| TGTTTATGCAATGTTA (sugars kkdddddddddkdkdk, PS) | 46% | – |
| GATTGTGCTGAGCTTG (sugars kkddddddddkekekk, PS) | 14% | – |
| AGATGGTGTAACATAG (sugars k3 d10 k3, PS) | 39% | – |
| ATTGTGCTGAGCTTGA (sugars kdddddddddkekeke, PS) | 18% | – |
| CATTTCTGATGTGACT (sugars k3 d10 k3, PS) | 32% | – |
| TAATGTCACAAGCAGA (sugars k3 d10 k3, PS) | 52% | – |
| CATGCTGTGAAACTCT (sugars k3 d10 k3, PS) | 8% | – |
| GTCCAGTGATACTTTC (sugars k3 d9 k3 e1, PS) | 48% | – |
| ATGCTGTGAAACTCTC (sugars kkddddddddddkeke, PS) | 35% | – |
| ATGGTGTAACATAGGT (sugars kkddddddddddkeke, PS) | 65% | target mRNA inhibition (A431, 0.185 µM): 22%; target mRNA inhibition (A431, 0.556 µM): 39%; target mRNA inhibition (A431, 1.667 µM): 60%; target mRNA inhibition (A431, 5 µM): 69% |
| AGGAGTCTTTATAGTA (sugars k3 d10 k3, PS) | 66% and 65% and 57% | target mRNA inhibition (A431, 0.185 µM): 14%; target mRNA inhibition (A431, 0.556 µM): 42%; target mRNA inhibition (A431, 1.667 µM): 58%; target mRNA inhibition (A431, 5 µM): 77% |
| GGGAATTACAAGTATT (sugars k3 d10 k3, PS) | 28% | – |
| AAGTGTTTATGCAATG (sugars k3 d10 k3, PS) | 45% | – |
| AGTGTGACTCAGTTAA (sugars kkddddddddddkeke, PS) | 41% | – |
| TGTTTATGCAATGTTA (sugars kkddddddddddkeke, PS) | 23% | – |
| AGTTTCACATAGCAAT (sugars k3 d10 k3, PS) | 38% | – |
| GTGTGACTCAGTTAAA (sugars kdddddddddkekeke, PS) | 25% | – |
| TCTTGTTGAGCTATCC (sugars k3 d10 k3, PS) | 56% | target mRNA inhibition (A431, 0.185 µM): 28% and 3%; target mRNA inhibition (A431, 0.556 µM): 38% and 29%; target mRNA inhibition (A431, 1.667 µM): 61% and 40%; target mRNA inhibition (A431, 5 µM): 82% and 64% |
| GGCAAGATGACACTAA (sugars k3 d10 k3, PS) | 30% | – |
| CCATTTATGTGACTAG (sugars kkddddddddkekekk, PS) | 0% | – |
| TTAAAAAAAAAATTAA (sugars k3 d10 k3, PS) | 0% | – |
| CCATTCAAAGTTCACA (sugars k3 d10 k3, PS) | 42% | – |
| GTGTGACTCAGTTAAA (sugars kddddddddddkekek, PS) | 30% | – |
| TTAGTGATTAGGTCAA (sugars k3 d9 k3 e1, PS) | 53% | – |

| Sequence | target mRNA inhibition (A431, 2 µM) | also measured |
| --- | --- | --- |
| GTCCAGTGATACTTTC (sugars kkddddddddkekekk, PS) | 22% | – |
| GATTTGTCAGCAGGAC (sugars kkddddddddkekekk, PS) | 0% | – |
| TAGGAGTCTTTATAGT (sugars k3 d10 k3, PS) | 41% | – |
| AATTAATGTCTTGGCA (sugars k3 d10 k3, PS) | 12% | – |
| ATGCTGTGAAACTCTC (sugars kddddddddddkekek, PS) | 18% | – |
| ATAATAATCCCCATTT (sugars k3 d10 k3, PS) | 4% | – |
| TCCATTTATGTGACTA (sugars kkkddddddddkdkdk, PS) | 16% | – |
| AGTGTGACTCAGTTAA (sugars k3 d9 k3 e1, PS) | 15% | – |
| TTGTGCAATGGTGACA (sugars k3 d10 k3, PS) | 29% | – |
| AAATTAGTGATTAGGT (sugars k3 d10 k3, PS) | 5% | – |
| AAAAATTAATGTCTTG (sugars k3 d10 k3, PS) | 20% | – |
| GTCCAGTGATACTTTC (sugars kddddddddddkekek, PS) | 36% | – |
| AACCATTCAAAGTTCA (sugars k3 d10 k3, PS) | 35% | – |
| AGTGTGACTCAGTTAA (sugars kkdddddddddkdkdk, PS) | 38% | – |
| TCAAAGTTCACATAAA (sugars k3 d10 k3, PS) | 19% | – |
| GTTTATGCAATGTTAA (sugars kkddddddddkekekk, PS) | 57% | target mRNA inhibition (A431, 0.185 µM): 27%; target mRNA inhibition (A431, 0.556 µM): 46%; target mRNA inhibition (A431, 1.667 µM): 45%; target mRNA inhibition (A431, 5 µM): 79% |
| TGCTATAATAATCCCC (sugars k3 d10 k3, PS) | 43% | – |
| ACTAATAGCAGTGGAA (sugars k3 d10 k3, PS) | 27% | – |
| ATTAGTGATTAGGTCA (sugars k3 d10 k3, PS) | 55% | target mRNA inhibition (A431, 0.185 µM): 2% and 25%; target mRNA inhibition (A431, 0.556 µM): 37%; target mRNA inhibition (A431, 1.667 µM): 47%; target mRNA inhibition (A431, 5 µM): 71% |
| CTATTAGGAGTCTTTA (sugars k3 d10 k3, PS) | 34% | – |
| TAATCCATTTATGTGA (sugars k3 d10 k3, PS) | 31% | – |
| ATGCTGTGAAACTCTC (sugars kkkdddddddddkeke, PS) | 2% | – |
| CCAGTGTTAAGAGAAC (sugars kkddddddddddkeke, PS) | 42% | – |
| GGAGTCTTTATAGTAA (sugars kkddddddddddkeke, PS) | 55% | target mRNA inhibition (A431, 0.185 µM): 27%; target mRNA inhibition (A431, 0.556 µM): 45%; target mRNA inhibition (A431, 1.667 µM): 57%; target mRNA inhibition (A431, 5 µM): 82% |
